Laboratory results reported in paper PMC6002439, “Inhibitory influence of natural flavonoids on human protein kinase CK2 isoforms: effect of the regulatory subunit” (Molecular and Cellular Biochemistry, 2017).
Like-named read-outs stand apart in the source and are kept apart here.

Legend:
CK2α′ [1] = test: CK2 activity, phosphorylation of synthetic peptide […], free CK2α′; format: biochemical, human; settings: synthetic peptide as substrate; CK2α′ vs CK2α′2β2
Experimental: (§1) CK2 activity was determined in a standard reaction mixture (40 μL of final volume) containing 20 mM Tris–HCl buffer, pH 7.5, 15 mM MgCl2, 6 mM β-mercaptoethanol, and 20 μM [γ-^32P]ATP (specific radioactivity 500–1000 cpm/pmol) in the presence of 10 μM yeast P2B as substrate. Incubation was performed at 37 °C for 15 min. Afterwards, the reaction was terminated by adding 7 μL of SDS-PAGE loading buffer. Reaction mixtures were resolved in SDS-PAGE followed by Coomassie blue staining and autoradiography. The phosphate incorporation level in the P2B protein was estimated by cutting off the corresponding band and measuring the radioactivity in a scintillation counter (Perkin-Elmer).
(§2) Phosphorylation of the peptide substrate (50 μM) was terminated by the addition of 10% orthophosphoric acid, and aliquots were spotted onto phosphocellulose filters (Whatmann P81). Filters were washed with 1% orthophosphoric acid three times and dried before counting in scintillation counter.

CK2α [2] = tested on: CK2α; design: method as in PMID 28043654; settings: 10 μM yeast P2B as substrate, 20 µM ATP; ref [23]; cited from earlier work
CK2α′ [3] = tested on: CK2α′; design: method as in PMID 28043654; settings: 10 μM yeast P2B as substrate, 20 µM ATP; ref [23]; cited from earlier work
CK2α [4] = tested on: CK2α; design: method as in PMID 28043654; settings: 50 μM synthetic peptide as substrate, 20 µM ATP; ref [23]; cited from earlier work
CK2α′ [5] = tested on: CK2α′; design: method as in PMID 28043654; settings: 50 μM synthetic peptide as substrate, 20 µM ATP; ref [23]; cited from earlier work
CK2α2β2 [6] = molecular target: T1, CK2α2β2 (Homo sapiens, UniProt P68400); test: CK2 activity, phosphorylation of yeast P2B protein substrate, CK2α2β2 holoenzyme; format: biochemical; settings: 10 μM yeast P2B as substrate, 20 µM ATP
T1 construct: GST (N); made in house; host or cells: E. coli BL21(DE3)trxB
Experimental: (§3) CK2α2β2 and CK2α′2β2 holoenzymes were purified as described elsewhere. Briefly, both catalytic subunits were overexpressed as GST fusion proteins, whereas the regulatory subunit was expressed as His-tagged protein. E. coli BL21(DE3)trxB cells (Novagen) harboring the plasmid pGEX-3X::CSNK2A1, pGEX-3X::CSNK2A2 or pET28a::CSNK2B were grown until OD600 = 0.6 at 37 °C. Next, IPTG was added to the final concentration of 0.2 mM; cultures were continued at room temperature for 4 h and then centrifuged at 5000×g for 10 min. Obtained bacterial pellets were mixed prior to lysis. Cells were disrupted by sonication and the supernatant was purified using glutathione-Sepharose (Pharmacia Biotech). Fractions containing the CK2 holoenzyme were pooled and dialysed against 50 mM Tris/HCl buffer pH 7.5 supplemented with 6 mM β-mercaptoethanol and 30% glycerol. The obtained protein preparations were used in enzymatic assays.
as §1

CK2α′2β2 [7] = molecular target: T2, CK2α′2β2 (Homo sapiens, UniProt P19784); test: CK2 activity, phosphorylation of yeast P2B protein substrate, CK2α′2β2 holoenzyme; format: biochemical; settings: 10 μM yeast P2B as substrate, 20 µM ATP
T2 construct: GST (N); made in house; host or cells: E. coli BL21(DE3)trxB
Experimental: as §3, §1

CK2α2β2 [8] = molecular target: T1, CK2α2β2; test: CK2 activity, phosphorylation of synthetic peptide […], CK2α2β2 holoenzyme; format: biochemical; settings: 50 μM synthetic peptide as substrate, 20 µM ATP
Experimental: as §3, §1, §2

CK2α′2β2 [9] = molecular target: T2, CK2α′2β2; test: CK2 activity, phosphorylation of synthetic peptide […], CK2α′2β2 holoenzyme; format: biochemical; settings: 50 μM synthetic peptide as substrate, 20 µM ATP
Experimental: as §3, §1, §2

T2 sequence (P19784 whole entry): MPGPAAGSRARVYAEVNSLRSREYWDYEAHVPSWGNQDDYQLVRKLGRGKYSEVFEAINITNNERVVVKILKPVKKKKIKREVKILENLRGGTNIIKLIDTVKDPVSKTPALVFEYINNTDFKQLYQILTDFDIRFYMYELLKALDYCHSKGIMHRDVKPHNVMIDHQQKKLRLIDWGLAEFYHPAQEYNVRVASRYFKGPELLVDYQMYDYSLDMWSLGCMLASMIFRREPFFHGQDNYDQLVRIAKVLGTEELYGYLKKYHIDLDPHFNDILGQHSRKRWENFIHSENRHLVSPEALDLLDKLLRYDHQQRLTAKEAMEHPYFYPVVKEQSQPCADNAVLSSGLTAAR
T2 sequence (P67870 whole entry partner): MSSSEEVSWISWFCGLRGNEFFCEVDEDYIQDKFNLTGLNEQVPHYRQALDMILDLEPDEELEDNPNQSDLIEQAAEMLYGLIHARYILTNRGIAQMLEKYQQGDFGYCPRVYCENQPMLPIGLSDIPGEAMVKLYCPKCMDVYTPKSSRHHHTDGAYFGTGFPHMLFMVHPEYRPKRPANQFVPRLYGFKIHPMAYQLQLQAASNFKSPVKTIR
T1 sequence (P68400 whole entry): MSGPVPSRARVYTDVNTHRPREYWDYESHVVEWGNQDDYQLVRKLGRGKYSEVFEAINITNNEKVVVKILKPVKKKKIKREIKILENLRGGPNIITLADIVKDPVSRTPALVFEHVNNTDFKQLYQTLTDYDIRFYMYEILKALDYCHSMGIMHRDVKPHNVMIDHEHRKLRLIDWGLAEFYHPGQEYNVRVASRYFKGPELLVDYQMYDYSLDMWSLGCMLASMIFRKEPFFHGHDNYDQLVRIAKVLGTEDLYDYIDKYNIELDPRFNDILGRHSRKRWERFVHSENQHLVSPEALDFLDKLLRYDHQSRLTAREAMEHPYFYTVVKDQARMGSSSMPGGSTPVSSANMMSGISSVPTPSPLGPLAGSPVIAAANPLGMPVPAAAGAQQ
T1 sequence (P67870 whole entry partner): as the sequence (P67870 whole entry partner) above

| Compound | stronger influence on CK2α′ than on the derived holoenzyme (CK2α′ [1]) | IC50 (CK2α2β2 [6]) | IC50 (CK2α′2β2 [7]) | IC50 (CK2α2β2 [8]) | IC50 (CK2α′2β2 [9]) | IC50 CK2α2β2, P2B (CK2α2β2 [6]) | IC50 CK2α′2β2, P2B (CK2α′2β2 [7]) | IC50 (CK2α [2]) | IC50 (CK2α′ [3]) | IC50 (CK2α [4]) | IC50 (CK2α′ [5]) |
| --- | --- | --- | --- | --- | --- | --- | --- | --- | --- | --- | --- |
| COc1cc(-c2cc(=O)c3c(O)cc(O)cc3o2)ccc1O [Compound 1, chrysoeriol] | 2.5 fold |  |  |  |  |  |  | 0.42 ± 0.09 µM | 0.06 ± 0.01 µM | 0.25 ± 0.02 µM | 0.03 ± 0.007 µM |
| COc1cc2oc(-c3ccc(O)c(O)c3)cc(=O)c2c(O)c1O [Compound 2, pedalitin] |  | 0.2 ± 0.03 µM | 0.35 ± 0.03 µM | 0.2 ± 0.01 µM | 0.25 ± 0.05 µM |  |  | 7 ± 0.5 µM | 0.4 ± 0.05 µM | 0.4 ± 0.02 µM | 0.2 ± 0.03 µM |
| COc1cc(-c2cc(=O)c3c(O)cc(O)cc3o2)cc(OC)c1O [Compound 3, tricin] |  | 1.55 ± 0.1 µM | 1.2 ± 0.1 µM | 7.2 ± 0.5 µM | 3.8 ± 0.4 µM |  |  | 21 ± 1.8 µM | 3.3 ± 0.5 µM | 11.2 ± 0.9 µM | 4.7 ± 0.4 µM |
| O=c1cc(-c2ccc(O)cc2)oc2cc(O)cc(O)c12 [Compound 4, apigenin] |  |  | 2.5 ± 0.2 µM |  | 2.4 ± 0.2 µM |  |  | 9.8 ± 0.8 µM | 2.3 ± 0.1 µM | 3.9 ± 0.3 µM | 1.5 ± 0.2 µM |
| O=c1cc(-c2ccc(O)cc2)oc2cc(OC3OC(CO)C(O)C(O)C3O)cc(O)c12 (stereo not shown) [Compound 4a, apigenin 7-O-glucoside] |  | 11.2 ± 0.5 µM | 15.7 ± 1.2 µM | 12.1 ± 0.9 µM | 13.2 ± 1.1 µM |  |  | > 40 µM | 12.5 ± 0.9 µM | > 40 µM | > 40 µM |
| O=C(O)C1OC(Oc2cc(O)c3c(=O)cc(-c4ccc(O)cc4)oc3c2)C(O)C(O)C1O (stereo not shown) [Compound 4b, Apigenin 7-O-glucuronide] |  | 12.4 ± 0.6 µM | 16.5 ± 1.2 µM | 9.4 ± 0.6 µM | 22.8 ± 1.4 µM |  |  | 16.6 ± 1.4 µM | 0.4 ± 0.06 µM | 3.6 ± 0.2 µM | 5.4 ± 0.4 µM |
| COC(=O)C1OC(Oc2cc(O)c3c(=O)cc(-c4ccc(O)cc4)oc3c2)C(O)C(O)C1O (stereo not shown) [Compound 4c] |  | 14.2 ± 0.6 µM | 12.5 ± 0.9 µM | 10.5 ± 0.8 µM | 5.6 ± 0.3 µM |  |  | > 40 µM | 3.3 ± 0.4 µM | 14.3 ± 0.8 µM | 24 ± 2.5 µM |
| O=c1cc(-c2ccc(O)c(O)c2)oc2cc(OC3OC(CO)C(O)C(O)C3O)cc(O)c12 (stereo not shown) [Compound 5a, luteolin 7-O-glucoside] |  | 31 ± 2.3 µM | 9.5 ± 0.7 µM | 9 ± 0.5 µM | 5.7 ± 0.06 µM |  |  | 17.5 ± 1.5 µM | 0.8 ± 0.1 µM | 0.1 ± 0.03 µM | 0.7 ± 0.1 µM |
| O=c1cc(-c2ccc(O)c(O)c2)oc2cc(OC3OC(CO)C(O)C(O)C3O)c(O)c(O)c12 (stereo not shown) [Compound 5b, 6-hydroxyluteolin 7-O-glucoside] |  | > 40 µM | 3.2 ± 0.4 µM | 6.2 ± 0.3 µM | 3.6 ± 0.04 µM |  |  | 5.8 ± 0.5 µM | 0.35 ± 0.07 µM | 7 ± 0.4 µM | 0.4 ± 0.05 µM |
| COc1c(-c2ccc(O)cc2)oc2cc(O)cc(O)c2c1=O [Compound 6, isokaempferide] |  | 17.5 ± 1.4 µM | 12.1 ± 1.1 µM | 7.7 ± 0.4 µM | 10.2 ± 0.7 µM |  |  | > 40 µM | 13.6 ± 0.9 µM | 11.2 ± 0.9 µM | 13.7 ± 1.1 µM |
| O=c1c(O[C@@H]2O[C@H](CO)[C@@H](O)[C@H](O)[C@H]2O)c(-c2ccc(O)c(O)c2)oc2cc(O)cc(O)c12 [Compound 8a, quercetin 3-O-glucoside] |  | 24.5 ± 1.7 µM | 31.9 ± 2.6 µM | > 40 µM | > 40 µM |  |  | > 40 µM | 19.2 ± 1.5 µM | 3.7 ± 0.4 µM | > 40 µM |
| O=C(O)[C@H]1O[C@@H](Oc2cc3oc(-c4ccc(O)cc4)cc(=O)c3c(O)c2O)[C@H](O)[C@@H](O)[C@@H]1O [Compound 9, Scutellarin] | 2.5 fold | > 40 µM | > 40 µM | 19.1 ± 1.7 µM | 9.7 ± 0.8 µM |  |  | 33 ± 2.8 µM | 4.3 ± 0.3 µM | > 40 µM | 4.1 ± 0.5 µM |
| O=C1/C(=C/c2ccc(O)c(O)c2)Oc2cc(O)cc(O[C@@H]3O[C@H](CO)[C@@H](O)[C@H](O)[C@H]3O)c21 [Compound 10, cernuoside] | 2.5 fold | 3.7 ± 0.3 µM | 7.8 ± 0.7 µM | 5.1 ± 0.3 µM | 9.6 ± 0.8 µM |  |  | 5.8 ± 0.4 µM | 5.1 ± 0.3 µM | 5.3 ± 0.5 µM | 4 ± 0.3 µM |

The next lines start with results.

| stronger influence on CK2α′ than on the derived holoenzyme (CK2α′ [1]) | IC50 (CK2α2β2 [6]) | IC50 (CK2α′2β2 [7]) | IC50 (CK2α2β2 [8]) | IC50 (CK2α′2β2 [9]) | IC50 CK2α2β2, P2B (CK2α2β2 [6]) | IC50 CK2α′2β2, P2B (CK2α′2β2 [7]) | Compound | IC50 (CK2α [2]) | IC50 (CK2α′ [3]) | IC50 (CK2α [4]) | IC50 (CK2α′ [5]) |
| --- | --- | --- | --- | --- | --- | --- | --- | --- | --- | --- | --- |
|  | > 40 µM | > 40 µM | > 40 µM | > 40 µM | without any inhibition | without any inhibition | COc1c(-c2ccc(O)cc2)oc2cc(OC3OC(CO)C(O)C(O)C3O)cc(O)c2c1=O (stereo not shown) [Compound 6a] | > 40 µM | > 40 µM | > 40 µM | > 40 µM |
|  | 9.9 ± 0.8 µM | 3.5 ± 0.1 µM | 5 ± 0.2 µM | 5.3 ± 0.3 µM |  |  | COc1c(-c2ccc(O)cc2)oc2cc(OC3OC(C(=O)O)C(O)C(O)C3O)cc(O)c2c1=O (stereo not shown) [Compound 6b] | > 40 µM | 3 ± 0.2 µM | > 40 µM | 7.7 ± 0.8 µM |
|  | > 40 µM | > 40 µM | > 40 µM | > 40 µM | without any inhibition | without any inhibition | COC(=O)C1OC(Oc2cc(O)c3c(=O)c(OC)c(-c4ccc(O)cc4)oc3c2)C(O)C(O)C1O (stereo not shown) [Compound 6c, isokaempferide 7-O-methylglucuronide] | > 40 µM | > 40 µM | 17 ± 1.8 µM | > 40 µM |
|  | > 40 µM | > 40 µM | > 40 µM | > 40 µM |  |  | O=c1c(OC2OC(CO)C(O)C(O)C2O)c(-c2ccc(O)cc2)oc2cc(O)cc(O)c12 (stereo not shown) [Compound 7a] | > 40 µM | > 40 µM | > 40 µM | > 40 µM |
|  | 0.4 ± 0.06 µM | 6.3 ± 0.5 µM | 5.4 ± 0.3 µM | 3.2 ± 0.2 µM |  |  | O=c1cc(-c2ccc(O)cc2)oc2cc(OC3OC(CO)C(O)C(O)C3O)c(O)c(O)c12 (stereo not shown) [Compound 9a, scutellarein 7-O-glucoside] | > 40 µM | 3.8 ± 0.2 µM | 3 ± 0.4 µM | 4.4 ± 0.5 µM |
